From US9458153B2, “Dihydroquinolizinones for the treatment and prophylaxis of hepatitis B virus infection” (Hoffmann-La Roche Inc., priority 2014, dated 2016) come the findings set out here.

Assay [1] deals with HBsAg. Description: HBsAg assay (chemiluminescence immunoassay of secreted HBsAg in HepG2.2.15 culture supernatant). Format: cell-based, HBV. To be noted: HepG2.2.15 cells, CLIA kit. Put shortly:
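HepG2.2.15 cells, which constitutively express HBV, were seeded in duplicate and treated with three-fold serial compound dilutions at 1% DMSO final. Secreted HBsAg in culture supernatant was measured semi-quantitatively by chemiluminescence immunoassay. IC50 was extrapolated from dose-response curves.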

Assay [2] relates to HBV DNA. Description: HBV DNA assay (real-time qPCR/TaqMan of extracellular HBV DNA copy number, HepG2.2.15 cells). The class given is cell-based. The settings on record: Hepatitis B virus, HepG2.2.15, 144 h, Anti HBV DNA production activity in HepG2.2.15 cells; supernatant collected six days after initial administration. As to the method:
HepG2.2.15 cells (Acs et al. Proc Natl Acad Sci USA, 84, (1987), 4641-4), a constitutively HBV-expressing cell line were cultured in DMEM+Glutamax-I medium (Invitrogen, Carlsbad, Calif., USA), supplemented with 10% fetal bovine serum (Invitrogen) and G418 (Invitrogen) at a final concentration of 200 mg/L and maintained in 5% CO2 at 37° C.
The assay employs real-time qPCR (TaqMan) to directly measure extracellular HBV DNA copy number. HepG2.2.15 cells were plated in 96-well microtiter plates. Only the interior wells were utilized to reduce “edge effects” observed during cell culture, the exterior wells were filled with complete medium to help minimize sample evaporation. On the following day, the HepG2.2.15 cells were washed and the medium was replaced with complete medium containing various concentrations of a test compound in triplicate. 3TC was used as the positive control, while media alone was added to cells as a negative control (virus control, VC). Three days later, the culture medium was replaced with fresh medium containing the appropriately diluted drug. Six days following the initial administration of the test compound, the cell culture supernatant was collected, treated with pronase and then used in a real-time qPCR/TaqMan assay to determine HBV DNA copy numbers. Antiviral activity was calculated from the reduction in HBV DNA levels (IC50).
The compounds of the present invention were tested for their capacity to inhibit HBV DNA as described herein.
In general terms: Real-time PCR tracks product formation cycle by cycle.

Setting [3] is: HBsAg secretion reduced by 50% vs no drug control.

As a reminder, the IC50 is the concentration at which inhibition is half-maximal. A low value points to inhibition by little substance. Regarding `CCCOc1cc2c(cc1OC)-c1cc(=O)c(C(=O)O)cn1C(CC)C2` (single isomer, unassigned; (+)) [Example 79, (+)-6-ethyl-10-methoxy-2-oxo-9-propoxyl-6,7-dihydrobenzo[a]quinolizine-3-carboxylic acid], the 50% inhibitory concentration (IC50) in assay [1] (setting [3]) was determined as 4 nM; in assay [2], 2 nM.

As to `COc1cc2c(cc1OC)-c1cc(=O)c(C(=O)O)cn1C(C(C)C)C2` (single isomer, unassigned; (+)) [Example 99, (+)-6-isopropyl-9,10-dimethoxy-2-oxo-6,7-dihydrobenzo[a]quinolizine-3-carboxylic acid], the 50% inhibitory concentration (IC50) in assay [1] (setting [3]) is 16 nM; in assay [2], 3 nM.

In the case of `COCCOc1cc2c(cc1Cl)-c1cc(=O)c(C(=O)O)cn1C(C(C)C)C2` (single isomer, unassigned; (+)) [Example 108, (+)-10-chloro-6-isopropyl-9-(2-methoxyethoxy)-2-oxo-6,7-dihydrobenzo[a]quinolizine-3-carboxylic acid], the IC50 in assay [1] (setting [3]) was 3 nM; in assay [2], 2 nM.

For `COCCCOc1cc2c(cc1Cl)-c1cc(=O)c(C(=O)O)cn1C(C(C)C)C2` (single isomer, unassigned; (+)) [Example 121, (+)-10-chloro-6-isopropyl-9-(3-methoxypropoxy)-2-oxo-6,7-dihydrobenzo[a]quinolizine-3-carboxylic acid], the 50% inhibitory concentration (IC50) in assay [1] (setting [3]) is 2 nM; in assay [2] it was < 0.1 nM.

`COCCCOc1cc2c(cc1OC)-c1cc(=O)c(C(=O)O)cn1C(C(C)C)C2` (single isomer, unassigned; (+)) [Example 124, (+)-10-methoxy-6-isopropyl-9-(3-methoxypropoxy)-2-oxo-6,7-dihydrobenzo[a]quinolizine-3-carboxylic acid]: the 50% inhibitory concentration (IC50) in assay [1] (setting [3]) was 2 nM; in assay [2], < 0.1 nM.

Take `COc1cc2c(cc1OCCN1CCOCC1)CC(C(C)(C)C)n1cc(C(=O)O)c(=O)cc1-2` (single isomer, unassigned; (+)) [Example 190, (+)-6-tert-butyl-10-methoxy-9-(2-morpholinoethoxy)-2-oxo-6,7-dihydrobenzo[a]quinolizine-3-carboxylic acid]: the concentration for half-maximal inhibition (IC50) was 6 nM in assay [1] (setting [3]) and 2 nM in assay [2].

Take `COCCCOc1cc2c(cc1Cl)-c1cc(=O)c(C(=O)O)cn1C(C1(C)CC1)C2` (single isomer, unassigned; (+)) [Example 206, (+)-10-chloro-9-(3-methoxypropoxy)-6-(1-methylcyclopropyl)-2-oxo-6,7-dihydrobenzo[a]quinolizine-3-carboxylic acid]: the values for the concentration for half-maximal inhibition (IC50) in assay [1] (setting [3]) and in assay [2] were 1 nM and 0.1 nM, respectively.

For `COCCCOc1cc2c(cc1OC)-c1cc(=O)c(C(=O)O)cn1C(C1(C)CC1)C2` (single isomer, unassigned; (+)) [Example 209, (+)-10-methoxy-9-(3-methoxypropoxy)-6-(1-methylcyclopropyl)-2-oxo-6,7-dihydrobenzo[a]quinolizine-3-carboxylic acid], the IC50 in assay [1] (setting [3]) was 1 nM; in assay [2], 0.3 nM.

As to `CCOc1cc2c(cc1Cl)-c1cc(=O)c(C(=O)O)cn1C(CC)C2` (single isomer, unassigned; (-)) [Example 119, (−)-10-chloro-9-ethoxy-6-ethyl-2-oxo-6,7-dihydrobenzo[a]quinolizine-3-carboxylic acid], the results for the half-inhibitory concentration (IC50) in assay [1] (setting [3]) and in assay [2] were 330 nM and 2 nM, respectively.

Turning to `CCOc1cc2c(cc1OCC)-c1cc(=O)c(C(=O)O)cn1C(CC)C2` (centres unmarked) [Example 5, 9,10-diethoxy-6-ethyl-2-oxo-6,7-dihydrobenzo[a]quinolizine-3-carboxylic acid], the half-inhibitory concentration (IC50) in assay [1] (setting [3]) amounted to 18 nM; in assay [2] it was 9 nM.

Regarding `CCC1Cc2cc(OCC3CC3)c(OC)cc2-c2cc(=O)c(C(=O)O)cn21` (centres unmarked) [Example 30, 9-(cyclopropylmethoxy)-6-ethyl-10-methoxy-2-oxo-6,7-dihydrobenzo[a]quinolizine-3-carboxylic acid], the figures for the IC50 in assay [1] (setting [3]) and in assay [2] were 24 nM and 2 nM, respectively.

As to `CCC1Cc2cc(OCC(C)C)c(OC)cc2-c2cc(=O)c(C(=O)O)cn21` (centres unmarked) [Example 33, 6-ethyl-9-isobutoxy-10-methoxy-2-oxo-6,7-dihydrobenzo[a]quinolizine-3-carboxylic acid], the 50% inhibitory concentration (IC50) in assay [1] (setting [3]) amounted to 8 nM; in assay [2], 3 nM.

On to `CCOc1cc2c(cc1OCC)-c1cc(=O)c(C(=O)O)cn1CC2` [Example 76, 9,10-diethoxy-2-oxo-6,7-dihydrobenzo[a]quinolizine-3-carboxylic acid], for which the 50% inhibitory concentration (IC50) came to 350 nM in assay [1] (Hepatitis B virus, HepG2.2.15, HBsAg secretion reduced by 50% vs no drug control) and 130 nM in assay [2].
